Results as given in patent publication US8597620B2, “Composition comprising a tocopherol phosphate and preparation process” (LVMH Recherche, priority 2010, dated 2013).

Assay: Assaying of tocopherol phosphate by HPLC in the concentrated aqueous solution (state of dissolution)
Type: physicochemical
Details: concentrated aqueous solution of Example 1 (3.5% PPG-6-Decyltetradeceth-20, 17.4% 1,2-pentanediol, 8.7% γ-TPNa added, water), UV 290 nm, ambient temperature
Method: Method for the Assaying of Tocopherol Phosphate by HPLC
The concentrated solution of γ-TPNa obtained in Example 1 and the compositions prepared in Examples 2 to 5 are assayed for tocopherol phosphate by HPLC according to the following conditions:
Elution gradient:—Eluent A: sodium acetate/acetic acid buffer pH 4.2 • Eluent B=methanol/THF (80/20)
Preparation of the Solutions
Diluent: Eluent A/eluent B (20/80 v/v)
Standard solution for the calibration=solution of γ-TPNa at 0.08 mg/ml of diluent.
Solution for the assaying of the concentrated solution (Ex. 1):
100 mg of the concentrated aqueous solution are withdrawn and diluted in 100 ml of diluent.

For `Cc1c(OP(=O)([O-])[O-])cc2c(c1C)OC(C)(CCCC(C)CCCC(C)CCCC(C)C)CC2.[Na+].[Na+]` (stereo not shown) [γ-TPNa, Sodium salt of γ-tocopherol phosphate], the “Result of the assaying of the γ-TPNa in the concentrated solution (dissolved amount)” value was 8.7 % by weight.
